In patent US20080161330A1, “Pyrimidines as Igf-I Inhibitors” (ASTRAZENECA AB, priority 2005, published 2008):
Like-named read-outs stand apart in the source and are kept apart here.

System: murine fibroblasts (NIH3T3) over-expressing human IGF-1 receptor
Assay: Inhibition of IGF-stimulated cell proliferation (BrdU incorporation), Test (c)
Format: cell-based
Method: The construction of murine fibroblasts (NIH3T3) over-expressing human IGF-1 receptor has been described by Lammers et al (EMBO J, 8, 1369-1375, 1989). These cells show a proliferative response to IGF-I which can be measured by BrdU incorporation into newly synthesised DNA. Compound potency was determined as causing inhibition of the IGF-stimulated proliferation in the following assay:
Compounds are initially dissolved in DMSO to 10 mM, followed by dilutions in DMEM+1% FCS+glutamine to give a range from […] in 1-0.00045% DMSO final concentration in assay well.
Exponentially growing NIH3T3/IGFR cells were harvested and seeded in complete growth medium into a flat-bottomed 96 well tissue culture grade plate (Costar 3525) at 1.2×10^4 cells per well in a volume of 100 μl.
Growth medium was carefully removed from each well using a multi-channel pipette. Wells were carefully rinsed three times with 200 μl with HBSS. […] of starvation medium was added to each well and the plate was re-incubated for 24 hours.
50 μl of a 4× concentrate of test compound was added to appropriate wells. Cells were incubated for 30 minutes with compound alone before the addition of IGF. […]
The incorporation of BrdU in the cells (after a 4 h incorporation period) was assessed using the BrdU Cell Proliferation Elisa according to the manufacturer's protocol.

Row | SMILES | IC50 | IC50 (Mus musculus)
1 | Cc1cc(Nc2nc(N3C[C@H](O)C[C@H]3c3cc(-c4ccccn4)no3)ncc2Cl)n[nH]1 [Example 3, 5-Chloro-2-{(2S4R)-4-hydroxy-2-[3-(pyrid-2-yl)isoxazol-5-yl]pyrrolidin-1-yl}-4-(5-methyl-1H-pyrazol-3-ylamino)pyrimidine] | 0.8 µM | –
2 | Cc1cc(Nc2nc(N3C[C@@H](O)C[C@H]3c3cc(-c4ccccn4)no3)ncc2Cl)n[nH]1 [Example 4, 5-Chloro-2-[(2S,4S)-4-hydroxy-2-[3-(pyrid-2-yl)isoxazol-5-yl]pyrrolidin-1-yl]-4-(5-methyl-1H-pyrazol-3-ylamino)pyrimidine] | – | 0.93 µM
